Experimental data as given in patent US20070148660A1, “Treatment of maladaptive substance use with H-ras antagonists” (The Regents of the University of California, priority 2005, published 2007).

Columns and labels:
NR2B-adaptin association = details: 100 mM ethanol, 15 min, L(-tk) cells NR1+NR2B + PSD-95
Method: (§1) L(−tk) were cultured on 100 mm plates. When cells reached 75% confluency, they were transfected with 5 μg of PSD95-GFP cDNA using LipofectAMINE PLUS in accordance with the manufacturer's instructions. 24 hrs after transfection, the expression of the NMDAR subunits NR1+NR2A or NR1+NR2B was induced with […] dexamethasone in DMEM containing 10% FBS, and 0.5 mM ketamine as previously described (21). After 3 days of induction, the cross-linking or immunoprecipitation studies were conducted. Homogenates were obtained as described in (17).
(§2) The treated slices were homogenized in ice-cold buffer containing 1% deoxycholate, protease and phosphatase inhibitors and (in mM): 250 sucrose, 20 Tris-HCl (pH 7.5), 2 EDTA and 10 EGTA. 500 μg of the protein was diluted with 1× immunoprecipitation buffer (1% Triton X-100 and (in mM): 150 NaCl, 10 Tris HCl (pH 7.4), 1 EDTA, 1 EGTA and 0.2 sodium orthovanadate) and incubated with 5 μg of the appropriate antibody, followed by an overnight incubation at 4° C. with protein G agarose beads. The beads were extensively washed, re-suspended in 2× sample buffer and boiled for 5-10 min. The samples were then subjected to SDS-PAGE followed by Western blotting with the appropriate antibodies.
(§3) Proteins were separated by SDS-PAGE and blotted onto a nitrocellulose membrane. […] Results were quantified by NIH Image 1.61.

[1] = system: NR2A-adaptin β2 association; details: 100 mM ethanol, 15 min, L(-tk) cells NR1+NR2A + PSD-95
Method: as §1, §2, §3

Ras = Ras activity assay (Raf-1-Ras binding domain GST-agarose), hippocampal slices; assay type: cell-based, mouse; details: 100 mM ethanol, 15 min, hippocampal slices
Method: The treated hippocampal homogenates (250 μg) were incubated with […] of Raf-1-Ras binding domain GST-agarose for 45 min at 4° C. while rotating, as per manufacturer's instructions. […] Results were quantified by NIH Image 1.61.

[2] = system: NR2A-adaptin β2 association; assay: Co-immunoprecipitation of NR2A and adaptin β2, hippocampal slices; assay type: cell-based, mouse; details: 100 mM ethanol, 15 min
Method: (§4) Transverse hippocampal slices ([…]) were prepared from 10- to 12-week-old C57BL/6J mice. Slices were allowed to recover for 90 min in artificial cerebrospinal fluid (aCSF) saturated with 95% O2/5% CO2 containing (in mM): 126 NaCl, 1.2 KCl, 1.2 NaH2PO4, 1.2 MgCl2, 2.4 CaCl2, 18 NaHCO3, and 11 glucose. Following recovery, slices were treated with aCSF (control) or ethanol at room temperature, after which the slices were rinsed in cold aCSF, and used either for cross-linking experiments, for Ras activity assay, or for immunoprecipitation. In experiments using Tat-H-Ras DN or the Tat-peptide, the slices were pretreated with either aCSF (control) or 2 μM Tat-H-Ras DN or Tat-peptide for 2 hrs at room temperature, followed by ethanol treatments.
as §2, with “The beads were extensively washed, re-suspended in 2× sample buffer and boiled for 5-10 min. The samples were then subjected to SDS-PAGE followed by Western blotting with the appropriate antibodies.” left out
as §3

[3] = system: NR2A subunit of the NMDAR; assay: BS3 cross-linking, surface vs internalized NR2A in hippocampal slices; assay type: cell-based, mouse
Method: as §4
Cross-linking was performed as described previously (22), with minor modifications. Following treatment, the slices were placed in cold aCSF in the presence or absence of 2 mg/ml of the cross-linking reagent BS^3 for 45 min at 4° C. while shaking. Slices were then rinsed three times with cold aCSF containing 20 mM Tris (pH 7.6), followed by sonication in cold homogenization buffer (10% SDS, 10 mM EDTA, 100 mM Tris (pH 8.0), and protease and phosphatase inhibitor cocktails). The protein concentration was determined using the BCA assay, followed by SDS-PAGE and Western blot analysis. Data are expressed as ratio of normalized surface expressed or internalized receptors to the total receptor levels.
Proteins were separated by SDS-PAGE and blotted onto a nitrocellulose membrane. After blocking, the membranes were incubated with the specific primary antibody, followed by horseradish peroxidase-conjugated secondary antibody. Detection was obtained followed by enhanced chemiluminescent reaction (Amersham Biosciences), and processed using the STORM PhosphoImager (Amersham Biosciences). Results were quantified by NIH Image 1.61.

CCO [ethanol]
NR2B-adaptin association (NR2B-adaptin association): no change
association of NR2A with adaptin β2 [1]: increase
increase of Ras-GTP levels over the control (Ras): at least 2 fold
association of adaptin β2 with NR2A and vice-versa [2]: significantly increased
change in subcellular localization of NR2A after ethanol washout ([3]; 100 mM ethanol 15 min, washed out, 15 min recovery): not observed
intracellular level of NR2A ([3]; 100 mM ethanol, 15 min, hippocampal slices): significant increase
NR2A internalization in Fyn+/+ and Fyn-/- mice ([3]; 100 mM ethanol, 15 min, slices from Fyn+/+ and Fyn-/- mice): significantly enhanced
internalization of the NR2A subunits in Src+/+ mice ([3]; 100 mM ethanol, 15 min, slices from Src+/+ mice): significantly increased
NR2A internalization in Src+/- mice upon ethanol ([3]; 100 mM ethanol, 15 min, slices from Src+/- mice, NR2A internalized under basal conditions): no additional changes
surface expression of the NR2A subunit at lower ethanol concentrations ([3]; ethanol as low as 25 mM, 15 min, hippocampal slices): reduction
